Source: US7214699B2, “Indazole derivatives as CRF antagonists” (Roche Palo Alto LLC, priority 2002, dated 2007)
Where a name gives a salt, the structure may show the parent alone.

Experiments:
hCRF1 = molecular target: T1, hCRF1 (Homo sapiens, UniProt P34998); test: Intracellular cAMP stimulation assay (CRF1 functional assay); assay type: cell-based; settings: inhibition of hCRF (30 nM)-stimulated cAMP accumulation in human Y-79 retinoblastoma cells, read-out: hCRF1 pIC50 (converted)
T1 construct: endogenous in cells; host or cells: Human Y-79 retinoblastoma cells
T1 sequence (P34998 24-415): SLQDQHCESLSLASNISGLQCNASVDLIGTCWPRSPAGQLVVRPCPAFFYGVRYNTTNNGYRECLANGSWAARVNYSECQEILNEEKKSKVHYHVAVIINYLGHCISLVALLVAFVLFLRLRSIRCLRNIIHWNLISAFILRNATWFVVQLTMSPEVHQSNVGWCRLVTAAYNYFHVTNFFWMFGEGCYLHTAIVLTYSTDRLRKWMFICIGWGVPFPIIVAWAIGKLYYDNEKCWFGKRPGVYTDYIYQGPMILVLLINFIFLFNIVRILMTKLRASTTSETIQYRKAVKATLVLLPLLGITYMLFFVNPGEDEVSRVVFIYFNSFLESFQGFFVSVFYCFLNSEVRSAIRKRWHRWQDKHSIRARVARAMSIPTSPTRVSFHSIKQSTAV
Procedure: Intracellular cAMP Stimulation Assay
Human Y-79 retinoblastoma cells are grown in RPMI 1640 medium with 15% FBS. Measures of cAMP accumulation are performed by using NEN Adenylyl Cyclase FlashPlate kit (SMP004). The cells are separated from culture medium, washed twice with PBS (150×g, 8 min), resuspended (2E+6 cells/ml) in Stimulation Buffer (provided in the kit), and then added to 96-well FlashPlates, (50,000 cells per well). Various concentrations of test compounds are incubated with the cells for 20 min prior to the addition of hCRF (30 nM). The total assay volume is 100 μl. The assay is terminated after 20 min after addition of the hCRF by addition of Detection Buffer and [^125I]cAMP. After 2 hr at room temperature the mixtures are aspirated and the bound radioactivity is measured with a Packard TopCount. The potency (IC50 values) of test compounds in inhibiting the hCRF-stimulated accumulation of cAMP is determined by nonlinear regression analyses with interactive curve-fitting procedures.
The compounds of the present invention were active in receptor binding and functional assays.

SMILES | melting point [°C] | IC50 (hCRF1) [nM]
CCCN(CCC)c1c2cccc(-c3ccc(OC)cc3C)c2nn1C.Cl | 60 to 70 | 
CC/C=C(\CCC)c1c2cccc(-c3ccc(OC)nc3C)c2nn1C.Cl | 84.7 to 89.4 | 
COCCN(CCOC)c1c2cccc(-c3c(C)cc(C)cc3C)c2nn1C (as salt: hydrochloride) [If, Bis-(2-methoxy-ethyl)-[2-methyl-7-(2,4,6-trimethyl-phenyl)-2H-indazol-3-yl]-amine] | 140 to 142 | 
CCC=C(CCC)c1c2cccc(-c3ccc(Cl)cc3Cl)c2nn1C [Ia, 7-(2,4-Dichloro-phenyl)-2-methyl-3-(1-propyl-but-1-enyl)-2H-indazole hydrochloride] |  | 63.1
CCCN(CC1CC1)c1c2cccc(-c3ccc(Cl)cc3Cl)c2nn1C.Cl | 137 to 139 | 
Cn1nc2c(-c3ccc(Cl)cc3Cl)cccc2c1CN1CCOCC1 [Iag, 7-(2,4-Dichloro-phenyl)-2-methyl-3-morpholin-4-ylmethyl-2H-indazole] | 152.3 to 154.8 | 
CCCN(Cc1c2cccc(-c3c(C)cc(C)cc3C)c2nn1C)CC1CC1.Cl | 125.8 to 133.5 | 
CCN(CCOC)c1c2cccc(-c3c(C)cc(C)cc3C)c2nn1C.Cl | 142 to 146 | 
CCC=C(CCC)c1c2cccc(-c3c(C)cc(C)cc3C)c2nn1C.Cl [Ib, 2-Methyl-3-(1-propyl-but-1-enyl)-7-(2,4,6-trimethyl-phenyl)-2H-indazole hydrochloride] | 132 to 135 | 50.1
CCCN(CCC)c1c2cccc(-c3c(C)cc(C)cc3C)c2nn1C (as salt: hydrochloride) [Ic, [2-Methyl-7-(2,4,6-trimethyl-phenyl)-2H-indazol-3-yl]-dipropyl-amine] | 154 to 158 | 
CCCN(CC1CC1)C(=O)c1c2cccc(-c3c(C)cc(C)cc3C)c2nn1C [Im, 2-Methyl-7-(2,4,6-trimethyl-phenyl)-2H-indazole-3-carboxylic acid cyclopropylmethyl-propyl-amide] | 112.5 to 113.8 | 
CCCN(CCC)c1c2cccc(-c3c(C)cc(C)cc3C)c2nn1C [Ic, [2-Methyl-7-(2,4,6-trimethyl-phenyl)-2H-indazol-3-yl]-dipropyl-amine] |  | 79.4

Continued, values first:

melting point [°C] | IC50 (hCRF1) [nM] | SMILES
62 to 64.3 |  | CCCN(CCC)c1c2cccc(-c3ccc(OC)cc3OC)c2nn1C.Cl
147 to 152 |  | CCC=C(CCC)c1c2cccc(-c3ccc(Cl)cc3Cl)c2nn1C (as salt: hydrochloride) [Ia, 7-(2,4-Dichloro-phenyl)-2-methyl-3-(1-propyl-but-1-enyl)-2H-indazole hydrochloride]
 | 50.1 | CCCN(CC1CC1)c1c2cccc(-c3c(C)cc(C)cc3C)c2nn1C [Ip, Cyclopropylmethyl-[2-methyl-7-(2,4,6-trimethyl-phenyl)-2H-indazol-3-yl]-propyl-amine trifluoroacetic acid salt]
 | 79.4 | CCCN(Cc1cccs1)c1c2cccc(-c3c(C)cc(C)cc3C)c2nn1C [Io, [2-Methyl-7-(2,4,6-trimethyl-phenyl)-2H-indazol-3-yl]-propyl-thiophen-2-ylmethyl-amine trifluoro-acetic acid salt]
153 to 157 |  | CCCN(CCC)c1c2cccc(-c3ccc(Cl)cc3Cl)c2nn1C (as salt: hydrochloride) [[7-(2,4-Dichloro-phenyl)-2-methyl-2H-indazol-3-yl]-dipropyl-amine]
86 to 121 |  | CCCN(CCOC)c1c2cccc(-c3c(C)cc(C)cc3C)c2nn1C (as salt: hydrochloride) [Ie, (2-Methoxy-ethyl)-[2-methyl-7-(2,4,6-trimethyl-phenyl)-2H-indazol-3-yl]-propyl-amine]
197 to 200.8 |  | Cn1nc2c(-c3ccc(Cl)cc3Cl)cccc2c1C(=O)N1CCOCC1 [Iae, [7-(2,4-Dichloro-phenyl)-2-methyl-2H-indazol-3-yl]-morpholin-4-yl-methanone]
